Measurements: patent publication US20150105252A1, “SUBSTITUTED PYRAZOLES AS HERBICIDES” (E I DU PONT DE NEMOURS AND COMPANY, priority 2013, published 2015)

Assays:
[1] = tested on: canarygrass; test: Test D preemergence; format: in vivo, Phalaris minor; settings: Preemergence, scale 0 to 100
Procedure, shortened: (§1)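 Preemergence: seeds sown in silt loam and sprayed with compounds in a non-phytotoxic solvent with surfactant; postemergence: plants at 2 to 18 cm (1- to 4-leaf stage) in peat-based medium treated likewise. After 14 to 21 days in controlled growth conditions, injury rated visually versus controls on 0 (no effect) to 100 (complete control) scale.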

[2] = tested on: galium; test: Test D preemergence; format: in vivo, Galium aparine; settings: Preemergence, scale 0 to 100
Procedure, shortened: as §1

[3] = tested on: field poppy; test: Test D preemergence; format: in vivo, Papaver rhoeas; settings: Preemergence, scale 0 to 100
Procedure, shortened: as §1

[4] = tested on: ryegrass, Italian; test: Test D preemergence; format: in vivo, Lolium multiflorum; settings: Preemergence, scale 0 to 100
Procedure, shortened: as §1

[5] = tested on: speedwell; test: Test D preemergence; format: in vivo, Veronica persica; settings: Preemergence, scale 0 to 100
Procedure, shortened: as §1

[6] = tested on: buckwheat, wild; test: Test D preemergence; format: in vivo, Polygonum convolvulus; settings: Preemergence, scale 0 to 100
Procedure, shortened: as §1

[7] = tested on: windgrass; test: Test D preemergence; format: in vivo, Apera spica-venti; settings: Preemergence, scale 0 to 100
Procedure, shortened: as §1

[8] = tested on: field poppy; test: Test D postemergence; format: in vivo, Papaver rhoeas; settings: scale 0 to 100
Procedure, shortened: as §1

[9] = tested on: field violet; test: Test D postemergence; format: in vivo, Viola arvensis; settings: scale 0 to 100
Procedure, shortened: as §1

[10] = tested on: oilseed rape; test: Test D postemergence; format: in vivo, Brassica napus; settings: scale 0 to 100
Procedure, shortened: as §1

[11] = tested on: chamomile; test: Test D postemergence; format: in vivo, Matricaria inodora; settings: scale 0 to 100
Procedure, shortened: as §1

[12] = tested on: barley, spring; test: Test D postemergence; format: in vivo, Hordeum vulgare; settings: scale 0 to 100
Procedure, shortened: as §1

[13] = tested on: barley, winter; test: Test D postemergence; format: in vivo, Hordeum vulgare; settings: scale 0 to 100
Procedure, shortened: as §1

[14] = tested on: wheat, spring; test: Test D postemergence; format: in vivo, Triticum aestivum; settings: scale 0 to 100
Procedure, shortened: as §1

[15] = tested on: wheat, winter; test: Test D postemergence; format: in vivo, Triticum aestivum; settings: scale 0 to 100
Procedure, shortened: as §1

[16] = tested on: radish, wild; test: Test D postemergence; format: in vivo, Raphanus raphanistrum; settings: scale 0 to 100
Procedure, shortened: as §1

[17] = tested on: windgrass; test: Test D postemergence; format: in vivo, Apera spica-venti; settings: scale 0 to 100
Procedure, shortened: as §1

CCCc1cc(C(=O)NC(C)C)nn1Cc1cc(C(F)(F)F)nn1C [Compound 201]
Plant response rating, Canarygrass ([1]; 31 g ai/ha): 60 | Plant response rating, Canarygrass ([1]; 62 g ai/ha): 100 | Plant response rating, Canarygrass ([1]; 125 g ai/ha): 100 | Plant response rating, Canarygrass ([1]; 250 g ai/ha): 100 | Plant response rating, Galium ([2]; 62 g ai/ha): 50 | Plant response rating, Galium ([2]; 125 g ai/ha): 100 | Plant response rating, Galium ([2]; 250 g ai/ha): 100 | Plant response rating, Field Poppy ([3]; 62 g ai/ha): 100 | Plant response rating, Field Poppy ([3]; 125 g ai/ha): 100 | Plant response rating, Field Poppy ([3]; 250 g ai/ha): 100 | Plant response rating, Ryegrass, Italian ([4]; 62 g ai/ha): 65 | Plant response rating, Ryegrass, Italian ([4]; 125 g ai/ha): 85 | Plant response rating, Ryegrass, Italian ([4]; 250 g ai/ha): 100 | Plant response rating, Speedwell ([5]; 62 g ai/ha): 100 | Plant response rating, Speedwell ([5]; 125 g ai/ha): 100 | Plant response rating, Speedwell ([5]; 250 g ai/ha): 100 | Plant response rating, Buckwheat, Wild ([6]; 31 g ai/ha): 15 | Plant response rating, Buckwheat, Wild ([6]; 62 g ai/ha): 100 | Plant response rating, Buckwheat, Wild ([6]; 250 g ai/ha): 100 | Plant response rating, Windgrass ([7]; 62 g ai/ha): 100 | Plant response rating, Windgrass ([7]; 125 g ai/ha): 100 | Plant response rating, Windgrass ([7]; 250 g ai/ha): 100 | Field Poppy plant response rating ([8]; Postemergence, 31 g ai/ha): 55 | Field Poppy plant response rating ([8]; Postemergence, 125 g ai/ha): 60 | Field Poppy plant response rating ([8]; Postemergence, 250 g ai/ha): 65 | Field Poppy plant response rating ([8]; postemergence, 62 g ai/ha): 55 | Field Violet plant response rating ([9]; Postemergence, 31 g ai/ha): 55 | Field Violet plant response rating ([9]; Postemergence, 125 g ai/ha): 65 | Field Violet plant response rating ([9]; Postemergence, 250 g ai/ha): 75 | Field Violet plant response rating ([9]; postemergence, 62 g ai/ha): 55 | Oilseed Rape plant response rating ([10]; Postemergence, 31 g ai/ha): 40 | Oilseed Rape plant response rating ([10]; Postemergence, 125 g ai/ha): 50 | Oilseed Rape plant response rating ([10]; Postemergence, 250 g ai/ha): 70 | Oilseed Rape plant response rating ([10]; postemergence, 62 g ai/ha): 40 | Chamomile plant response rating ([11]; Postemergence, 31 g ai/ha): 35 | Chamomile plant response rating ([11]; Postemergence, 125 g ai/ha): 55 | Chamomile plant response rating ([11]; Postemergence, 250 g ai/ha): 65 | Chamomile plant response rating ([11]; postemergence, 62 g ai/ha): 35 | Barley, Spring plant response rating ([12]; Postemergence, 31 g ai/ha): 25 | Barley, Spring plant response rating ([12]; Postemergence, 125 g ai/ha): 25 | Barley, Spring plant response rating ([12]; Postemergence, 250 g ai/ha): 40 | Barley, Spring plant response rating ([12]; postemergence, 62 g ai/ha): 25 | Barley, Winter plant response rating ([13]; Postemergence, 31 g ai/ha): 20 | Barley, Winter plant response rating ([13]; Postemergence, 125 g ai/ha): 25 | Barley, Winter plant response rating ([13]; Postemergence, 250 g ai/ha): 35 | Barley, Winter plant response rating ([13]; postemergence, 62 g ai/ha): 20 | Wheat, Spring plant response rating ([14]; Postemergence, 31 g ai/ha): 15 | Wheat, Spring plant response rating ([14]; Postemergence, 125 g ai/ha): 15 | Wheat, Spring plant response rating ([14]; Postemergence, 250 g ai/ha): 30 | Wheat, Spring plant response rating ([14]; postemergence, 62 g ai/ha): 15 | Wheat, Winter plant response rating ([15]; Postemergence, 31 g ai/ha): 20 | Wheat, Winter plant response rating ([15]; Postemergence, 125 g ai/ha): 25 | Wheat, Winter plant response rating ([15]; Postemergence, 250 g ai/ha): 40 | Wheat, Winter plant response rating ([15]; postemergence, 62 g ai/ha): 20 | Radish, Wild plant response rating ([16]; Postemergence, 31 g ai/ha): 65 | Radish, Wild plant response rating ([16]; Postemergence, 125 g ai/ha): 65 | Radish, Wild plant response rating ([16]; Postemergence, 250 g ai/ha): 65 | Radish, Wild plant response rating ([16]; postemergence, 62 g ai/ha): 65 | Windgrass plant response rating ([17]; Postemergence, 31 g ai/ha): 20 | Windgrass plant response rating ([17]; Postemergence, 125 g ai/ha): 30 | Windgrass plant response rating ([17]; Postemergence, 250 g ai/ha): 45 | Windgrass plant response rating ([17]; postemergence, 62 g ai/ha): 20
